From publication PMC12797497, “Si-Ni-San improves the deposition of lipid droplets in MAFLD through modulating the FXR-GPAT4 axis” (Chinese Medicine, 2026)
“Also recorded” adds a separate entry of the source.

Legend:
[1] = molecular target: T1, FXR protein (Homo sapiens, UniProt Q96RI1); experiment: Surface plasmon resonance (SPR), FXR immobilized on CM5 chip; assay type: binding; settings: SPR steady-state affinity fit
T1 sequence (Q96RI1 1-486): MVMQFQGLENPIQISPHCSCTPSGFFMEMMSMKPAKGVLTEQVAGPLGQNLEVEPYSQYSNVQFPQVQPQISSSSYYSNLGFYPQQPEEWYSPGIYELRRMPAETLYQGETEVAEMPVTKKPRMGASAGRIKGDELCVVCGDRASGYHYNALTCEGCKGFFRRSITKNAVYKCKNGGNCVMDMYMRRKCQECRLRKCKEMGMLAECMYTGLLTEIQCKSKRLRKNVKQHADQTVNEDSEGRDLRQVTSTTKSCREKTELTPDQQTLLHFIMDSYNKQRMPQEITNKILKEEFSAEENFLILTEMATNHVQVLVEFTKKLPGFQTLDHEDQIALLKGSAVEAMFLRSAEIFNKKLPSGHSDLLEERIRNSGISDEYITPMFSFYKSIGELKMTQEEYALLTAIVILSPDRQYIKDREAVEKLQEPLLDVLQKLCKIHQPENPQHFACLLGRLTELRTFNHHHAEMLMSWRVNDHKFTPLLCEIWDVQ
Procedure: SPR analysis was performed by a Biacore S200 system (Cytiva, USA) equipped with a CM5 sensor chip. The FXR protein was immobilized on the chip via the standard amine coupling protocol, with the protein dissolved in a sodium acetate buffer at pH 4.5 and a concentration of 10 mM. […] Equilibrium dissociation constants (KD) were determined by fitting the response curves using the steady-state affinity model available in the Biacore S200 Evaluation Software.

[2] = test system: LDAH; experiment: LDAH protein level in liver of MAFLD mice (western blot); assay type: in vivo, C57BL/6N mice; settings: vs HFD group
[3] = test system: FXR; experiment: FXR protein expression in liver and colon of MAFLD mice (western blot, IHC); assay type: in vivo, C57BL/6N mice
Procedure: (§1) A standard diet was fed to the NC group, while HFD (D12451, Huanyu Hekang Biotechnology, China) was fed to the other four groups for 12 weeks. […] During this period, mice in the NC group and HFD group were given isovolumetric distilled water respectively.
(§2) Total protein was extracted using a protein extraction kit (PC201Plus, Epizyme). Then, the protein concentration was measured using a BCA kit (PC0020, Solarbio). The 50 μg of the total protein samples were loaded onto an SDS-PAGE gel. Following electrophoresis, the protein was transferred into polyvinylidene fluoride (PVDF) membranes. Whereafter, the membranes were first blocked with 5% nonfat dry milk in TBST and incubated with primary antibodies against FXR (bs-12867R, Bioss, 1:1000), GPAT4 (bs-15587R, Bioss, China, 1:1000), P62 (380612-50, Zenbio, China, 1:1000), HSL (344379-50, Zenbio, China, 1:1000), MAGL (PAD223Hu01, Cloud-Clone Corp, China, 1:1000), Beclin1 (BS-1353R, Bioss, China, 1:1000), ATGL (R389129-50, Bioss, China, 1:1000), LC3Ⅰ/Ⅱ (ABC929, Merck, USA, 1:1000), β-actin (bs-0061R, Bioss, China, 1:5000) and GAPDH (GB11002-100, Servicebio, China, 1:5000). After 12 h of incubation at 4 °C, the blots were proceeded with HRP-conjugated secondary antibody. Finally, the immune bands were detected using an ECL detection kit (sb-wb012, Shanghai Shenger Biotechnology Co., Ltd, China). The average gray value was quantified using Image J software.
The paraffin sections of liver were performed dewaxing followed by antigen retrieval, then add FXR primary antibody (bs-12867R, Bioss, 1:200) and GPAT4 primary antibody (bs-1924R, Bioss, 1:200), and incubate overnight at 4 °C. After the diaminobenzidine (DAB) enhanced staining, the sections were mounted with neutral gum. Finally, the images were observed and captured via a Leica DM4000B light microscope (Germany).

[4] = test system: HSL, ATGL, MAGL, P62, Beclin1, LC3Ⅰ/Ⅱ; experiment: Lipolysis- and lipophagy-related protein expression in liver of MAFLD mice (western blot); assay type: in vivo, C57BL/6N mice; settings: vs HFD group
Procedure: as §1, §2

[5] = test system: MAFLD mice; experiment: HFD-induced MAFLD mouse model: body/liver weight, histology, serum biochemistry, hepatic TBA; assay type: in vivo, C57BL/6N mice; settings: SNS 5.2 g/kg/d or OCA 10 mg/kg/d orally for 2 weeks
Text: as §1
Serum samples were collected to measure the content of TG, total cholesterol (TC), alanine aminotransferase (ALT), aspartate aminotransferase (AST), high-density lipoprotein cholesterol (HDL-C), and low-density lipoprotein cholesterol (LDL-C). The Reado/Changchun Huili kit was used for the assay, measured by a fully automatic biochemistry analyzer.
The TBA content in liver tissue was detected by a TBA assay kit (E003-2-1, Nanjing Jiancheng Bioengineering Institute, China). According to the kit instruction manual, the liver tissues were subjected to lysis, after which the supernatant was collected and added to a 96-well plate. Blank controls and standard controls were set up. Subsequently, 180 μL of Reagent 1 was added, followed by gentle shaking to mix thoroughly, and incubation at 37 °C for 5 min. After that, 60 μL of Reagent 2 was added, mixed well by gentle shaking, and incubated at 37 °C for 1 min. The absorbance (A0) was measured at a wavelength of 405 nm using a microplate reader. Another incubation at 37 °C for 3 min was conducted, and then the absorbance (A1) was measured again. The ΔA value was calculated as ΔA = A1−A0, which represents the TBA content in the liver tissues.
Liver tissue from each group of mice was fixed in 4% formalin, embedded in paraffin, and prepared as paraffin tissue sections with a thickness of 5 μm. The sections were dewaxed and rehydrated, subsequently subjected to H&E staining, and finally examined under a microscope (Leica DM2500, Germany) for the observation of LDs.
Lipid accumulation in vivo was assessed by oil red O (ORO) staining (G1261, Solarbio, China). For liver tissue, frozen tissue sections were prepared at a thickness of 10 μm. After fixation in formalin, the sections were washed in 60% isopropanol and then stained with freshly prepared ORO working solution for 15 min. Following rinsing with 60% isopropanol, the sections were examined under a microscope.

[6] = test system: GPAT4; experiment: GPAT4 expression in oleic acid-induced HepG2 cells (western blot); assay type: cell-based, human; settings: HepG2, OA 24 h; 15% SNS-containing serum or OCA 1 μM
Procedure: (§3) The HepG2 cell line was purchased from the American Type Culture Collection (Manassas, USA) and cultured in RPMI 1640 medium (Solarbio, China) with 10% fetal bovine serum (Gibco, USA) in an atmosphere with 5% CO2 and 100% humidity at 37 ℃. Oleic acid (OA) was purchased from Shanghai Macklin Biochemical Co., Ltd. (C11391320, Macklin, China). […] Cells were inoculated into 6-well plates and 96-well plates and treated with OA solution and SNS/NS-containing serum for 24 h.
(§4) Total protein was extracted using a protein extraction kit (PC201Plus, Epizyme). Then, the protein concentration was measured using a BCA kit (PC0020, Solarbio). The 50 μg of the total protein samples were loaded onto an SDS-PAGE gel. Following electrophoresis, the protein was transferred into polyvinylidene fluoride (PVDF) membranes. […] Finally, the immune bands were detected using an ECL detection kit (sb-wb012, Shanghai Shenger Biotechnology Co., Ltd, China). The average gray value was quantified using Image J software.

[7] = test system: GPAT4; experiment: GPAT4 protein expression in liver of MAFLD mice (western blot, IHC); assay type: in vivo, C57BL/6N mice; settings: vs HFD group
Procedure: as §1
as §2, with “After 12 h of incubation at 4 °C, the blots were proceeded with HRP-conjugated secondary antibody.” left out, “software. […]” for “software.”

[8] = test system: oleic acid-induced HepG2 cells; experiment: ORO staining of lipid droplets in oleic acid-induced HepG2 cells; assay type: cell-based, human; settings: HepG2, OA 24 h; 15% SNS-containing serum vs NS serum, or OCA 1 μM
Procedure: as §3
In vitro, the HepG2 cell cells were firstly seeded in 6-well plates (3 × 10^5 cells/well). After the cells were washed with PBS, ORO fixative was added to each well for 20–30 min, and 60% isopropyl alcohol was added to each well for 5 min. Then, ORO staining solution was used to stain the cells for 10–20 min. After the cells were washed with PBS, hematoxylin staining solution was used to re-stain the nucleus. Then, we added ORO buffer for 1 min. Finally, we used glycerin gelatin to seal the tablets. The changes in LDs were measured with Image Pro Plus v6.0 software (Media Cybemetic, USA).

[9] = test system: FXR; experiment: FXR expression in oleic acid-induced HepG2 cells (western blot); assay type: cell-based, human; settings: HepG2, OA 24 h; 15% SNS-containing serum or OCA 1 μM
Procedure: as §3, §4

[10] = test system: NASH; set-up: method as in PMID 38324483; settings: MAESTRO-NASH Phase III trial; cited from earlier work
[11] = test system: T2DM and high-risk obese individuals; settings: cited from earlier work

For `COc1ccc([C@@H]2CC(=O)c3c(O)cc(O[C@@H]4O[C@H](CO[C@@H]5O[C@@H](C)[C@H](O)[C@@H](O)[C@H]5O)[C@@H](O)[C@H](O)[C@H]4O)cc3O2)cc1O` [Hesperidin], the Rmax [1] was 49.9 RU.

Work on `COc1cc(-c2oc3cc(O)cc(O)c3c(=O)c2O)ccc1O` [Isorhamnetin] yielded an Rmax [1] of 20.3 RU.

In the case of `O=C1C[C@@H](c2ccc(O[C@@H]3O[C@H](CO)[C@@H](O)[C@H](O)[C@H]3O)cc2)Oc2cc(O)ccc21` [Liquiritin], the Rmax [1] is reported as 12.1 RU.

`COc1ccc([C@@H]2CC(=O)c3c(O)cc(O[C@@H]4O[C@H](CO)[C@@H](O)[C@H](O)[C@H]4O[C@@H]4O[C@@H](C)[C@H](O)[C@@H](O)[C@H]4O)cc3O2)cc1O` [Neohesperidin] showed an Rmax [1] of 181.5 RU.

`COc1ccc(-c2cc(=O)c3c(OC)c(OC)c(OC)c(OC)c3o2)cc1OC` [Nobiletin] showed an Rmax [1] of 210.1 RU.

In the case of `CC[C@H]1[C@@H](O)[C@@H]2[C@H](CC[C@]3(C)[C@@H]([C@H](C)CCC(=O)O)CC[C@@H]23)[C@@]2(C)CC[C@@H](O)C[C@@H]12` [OCA, Obeticholic acid], the “protein level of LDAH” value [2] is reported as “downregulated LDAH”, the “positive localization of FXR in liver tissues” value ([3]; IHC, liver) is reported as “increased the positive localization of FXR in liver tissues” and the “FXR expression in the colon” value ([3]; western blot, colon, vs HFD group) is reported as “elevated colonic FXR expression”. For the same compound, the “hepatic FXR expression” value ([3]; western blot, liver, vs HFD group) was “activated its expression; also recorded: activated FXR”, the ATGL expression [4] was “increased HSL and ATGL expression” and the Beclin1 expression [4] was “activated Beclin1”. The HSL expression [4] was “increased HSL and ATGL expression”, the MAGL expression [4] was “decreased MAGL expression” and the P62 expression [4] was “suppressed P62 expression”. For the same compound, the Rmax [1] was 32.0 RU, the “liver coefficient (liver weight/body weight)” value [5] was “restored to normal levels” and the “body weight at week 12” value ([5]; vs HFD group) was “significantly decreased body weight”. For the same compound, the “hepatic TBA level” value ([5]; vs HFD group) was “reduced TBA levels”, the “liver LDs deposition (H&E and ORO staining)” value ([5]; vs HFD group) was “significantly reduced LDs compared to the HFD group” and the liver weight ([5]; vs HFD group) was “significant reduction in liver weights”. The “serum ALT” value ([5]; vs HFD group) was “effectively reduced liver injury induced by HFD”, the “serum AST” value ([5]; vs HFD group) was “effectively reduced liver injury induced by HFD” and the “serum LDL-C” value ([5]; vs HFD group) was “reduced following SNS and OCA treatment”. For the same compound, the “serum TC” value ([5]; vs HFD group) was “reduced following SNS and OCA treatment”, the “serum TG” value ([5]; vs HFD group) was “reduced following SNS and OCA treatment” and the “GPAT4 expression in cells” value [6] was “inhibited GPAT4 expression in cells”. The “positive localization of GPAT4 in liver tissues” value ([7]; IHC) was “reduced the positive localization of GPAT4 in liver tissues”, the “GPAT4 expression in liver” value ([7]; western blot) was “inhibited GPAT4 expressions” and the “intracellular LDs accumulation (ORO staining)” value [8] was “reduced LDs deposition in cells”. For the same compound, the “FXR expression in cells” value [9] was “increased FXR expression”.

In the case of `CC(C)c1cc(Oc2c(Cl)cc(-n3nc(C#N)c(=O)[nH]c3=O)cc2Cl)n[nH]c1=O` [Resmetirom], the LDL-C decrease [10] is given as 13–16%, the NASH resolution [10] is given as 26–30% and the fibrosis improvement [10] is given as 24–26%. For the same compound, the “tolerability / adverse events” value [10] was “well-tolerated, with primarily mild diarrhea and nausea, and a serious adverse event rate comparable to placebo”.

For Semaglutide, the “reduction in major adverse cardiovascular events” value ([11]; SUSTAIN 6 and SELECT, T2DM and high-risk obese individuals) is given as 18–20%, the weight loss [11] is given as “at least 10%” and the safety profile ([11]; human, in vivo) is given as “common gastrointestinal reactions and infrequent serious adverse events”.
